Test results taken from the supplement of paper PMC10477900.
Structures can show the parent of a compound that is named as a salt.

Key:
[1] = system: HCT116; details: 72 h
Procedure: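 HCT116 control and MTA1-KO (CRISPR) HCT116 cells were seeded in 384-well plates (800 cells/well), treated 16 h later with 237 metabolism-related anticancer drugs at five doses (10 uM, 2 uM, 400 nM, 80 nM, 16 nM) for 72 h, two replicates; viability by CCK8. Values are % inhibition of viability relative to untreated cells, plus fitted IC50.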

[2] = system: HCT116; experiment: viability inhibition vs untreated; higher = more cytotoxic; details: 72 h

Compound | IC50 ([1]; genotype: MTA1-KO) | IC50 ([1]; genotype: control) | viability inhibition ([2]; genotype: MTA1-KO, 16 nM) | viability inhibition ([2]; genotype: MTA1-KO, 80 nM) | viability inhibition ([2]; genotype: MTA1-KO, 400 nM) | viability inhibition ([2]; genotype: MTA1-KO, 2000 nM) | viability inhibition ([2]; genotype: MTA1-KO, 10000 nM) | viability inhibition ([2]; genotype: control, 16 nM) | viability inhibition ([2]; genotype: control, 80 nM) | viability inhibition ([2]; genotype: control, 400 nM) | viability inhibition ([2]; genotype: control, 2000 nM) | viability inhibition ([2]; genotype: control, 10000 nM)
C[C@H]1CCC/C=C/[C@@H]2C[C@H](O)C[C@H]2[C@H](O)/C=C/C(=O)O1 [Brefeldin A] | 0.255 µM | 0.166 µM | -15.6% | -20.1% | 104% | 105% | 105% | 4.87% | -4.17% | 112% | 109% | 110%
O=C(Oc1ccc([N+](=O)[O-])cc1)N1CCC(C(O)(c2ccc3c(c2)OCO3)c2ccc3c(c2)OCO3)CC1 [JZL184] | 5.53 µM | > 10 µM | 6.97% | 15.2% | 21.9% | 37.7% | 62.3% | 9.18% | -4.77% | -6.67% | -12.4% | 2.68%
CC1=C(/C=C/C(C)=C/C=C/C(C)=C/C(=O)Nc2ccc(O)cc2)C(C)(C)CCC1 [Fenretinide] | > 10 µM | > 10 µM | -13% | -18.5% | -15% | -14.4% | -2.3% | 23.7% | 2.62% | 1.09% | 9.79% | 15.3%
S=c1nc[nH]c2nc[nH]c12 [Mercaptopurine] | 6.61 µM | 2.74 µM | -23.8% | -26.8% | -16.8% | -13.3% | 63% | -20.2% | -15.2% | -11.9% | 24.6% | 90.5%
Nc1nc(NC2CC2)cc(-c2cccc(Cl)c2Cl)n1 [TH588] | 5.34 µM | 8.67 µM | -0.076% | 6.2% | 2.73% | 14.7% | 80.3% | -7.89% | -5.19% | -7.31% | -7.46% | 74%
O=c1[nH]c(-c2ccc(C(F)(F)F)cc2)nc2c1CSCC2 [XAV939] | > 10 µM | > 10 µM | 1.12% | -14.7% | -18% | -23.8% | -14.9% | 4.99% | 12.8% | 0.365% | 4.5% | 0.791%
NC(N)=O [Urea] | > 10 µM | > 10 µM | -19% | -12.8% | -10.1% | -15.4% | -12.3% | 5.26% | 1.82% | -7.36% | 3.6% | -3.54%
COc1ccc(-c2ccccc2)cc1NS(=O)(=O)c1cc(Cl)cc(Cl)c1O | > 10 µM | > 10 µM | 4.57% | -1.5% | -3.79% | -1.98% | 8.72% | -1.23% | 6.1% | 4.53% | 6.77% | 13.4%
COc1ccccc1OCC(O)CN1CCN(CC(=O)Nc2c(C)cccc2C)CC1 (stereo unspecified) [Ranolazine dihydrochloride] | > 10 µM | > 10 µM | -7.57% | -13.7% | -7.85% | -21.5% | -19% | -2.04% | 2.97% | -7.95% | -0.947% | 15%
CC1(C)CC[C@]2(C(=O)O[C@@H]3O[C@H](CO)[C@@H](O)[C@H](O)[C@H]3O)CC[C@]3(C)C(=CC[C@@H]4[C@@]5(C)CC[C@H](O[C@@H]6O[C@H](C(=O)O)[C@@H](O)[C@H](O)[C@H]6O)C(C)(C)[C@@H]5CC[C@]43C)[C@@H]2C1 [Chikusetsusaponin IVa] | > 10 µM | > 10 µM | -3.21% | -3.77% | -2.17% | -0.406% | 19.3% | -1.39% | -7.09% | -12.1% | -11.2% | 3.05%
CCCCCCCCCCCCc1ccc(S(=O)(=O)Nc2nncs2)cc1 [PHT427] | > 10 µM | > 10 µM | -19.3% | -22.1% | -13% | -17.1% | -3.56% | 20.4% | -3.89% | -1.76% | -0.669% | 9.06%
Cc1nc(Nc2cnn(C3CCNCC3)c2)nc2c1N(C)C(=O)c1cc3ccccc3cc1N2C [HTH-01-015] | 7.99 µM | > 10 µM | -1.49% | 5.48% | -1.32% | 5.37% | 62.5% | 2.33% | 10.7% | 23.3% | 17.9% | 40.7%
COc1ccc2[nH]cc(CCNC(C)=O)c2c1 [Melatonine] | > 10 µM | > 10 µM | 11.6% | 12.1% | 6.76% | 7.43% | 8.55% | 10.2% | 9.39% | 9.78% | 24.1% | 14.5%
Cc1nc2ccc(CN(C)c3ccc(C(=O)N[C@@H](CCC(=O)O)C(=O)O)s3)cc2c(=O)[nH]1 [Raltitrexed] | 0.0857 µM | > 10 µM | -4.56% | 33.6% | 75.8% | 81.5% | 82.6% | -7.91% | -17.2% | 24.9% | 13% | -5.41%
O=C1[C@H](CC[C@H](O)c2ccc(F)cc2)[C@@H](c2ccc(O)cc2)N1c1ccc(F)cc1 [Ezetimibe] | > 10 µM | > 10 µM | -4.11% | 3.58% | 10.6% | 5.65% | 0.125% | -7.56% | 2.58% | 22% | 25.8% | 31.9%
C=CC[C@@H]1/C=C(\C)C[C@H](C)C[C@H](OC)[C@H]2O[C@@](O)(C(=O)C(=O)N3CCCC[C@H]3C(=O)O[C@H](/C(C)=C/[C@@H]3CC[C@@H](O)[C@H](OC)C3)[C@H](C)[C@@H](O)CC1=O)[C@H](C)C[C@@H]2OC [Tacrolimus] | > 10 µM | > 10 µM | -4.95% | -4.18% | 0.155% | -5.39% | -7.24% | 5.2% | 13.7% | 18% | 7.23% | 7.94%
CC(N)=NCc1cccc(CN)c1 [1400W dihydrochloride] | > 10 µM | > 10 µM | 5.1% | -4.81% | -3.44% | -9.66% | 42.6% | 5.38% | -11.1% | -13.9% | -9.74% | 2.89%
CNc1cc(-c2cccc(Cl)c2Cl)nc(N)n1 [TH287 hydrochloride] | 1.6 µM | 1.9 µM | 18.9% | 15.8% | 23% | 65.5% | 94.7% | 4.08% | 10.5% | 1.79% | 63.9% | 87.3%
